From patent US6194451A, “Matrix metalloproteinase inhibitors” (Pharmacia & Upjohn S.p.A., priority 1997, dated 2001)

Experiments:
[1] = test system: release of TNF from THP-1 cells; assay: Cellular Assay (Protocol B): inhibition of release of TNF from LPS-stimulated THP-1 cells; format: cell-based; conditions: Homo sapiens, LPS 5 microg/mL, 4 h
Description: For example, the following cell-based assay was used to assess such activity:
THP-1 cells, cultured in RPMI 1640 supplemented with 10% FCS, were distributed into 24-well plates, 1 mL of a suspension of 1×10^6 cells/mL in each well. Compounds to be tested, dissolved in DMSO and diluted with the culture medium (1% final DMSO concentration) were added. Plates were incubated for 30 min at 37° C. in 5% CO2, and lipopolisaccharide (LPS 0111:B4, 5 microg/mL) was added as a stimulant. After a further 4 h incubation, cells were harvested, centrifuged (2,000 rpm, 7 min), and the surnatant was collected and freezed (-20° C.) until analysis. Analysis was run by classical ELISA methodology (monoclonal anti-TNF-a antibody, rabbit capture policlonal antibody, and peroxidated anti-rabbit antibody).

[2] = molecular target: T1, MMP-2 (human gelatinase A) (Homo sapiens, UniProt P08253); assay: Biochemical Assay (Protocol A): inhibition of human gelatinase A, fluorimetric peptide substrate; conditions: MMP-2, pH 7.4, 37° C.
T1 sequence (P08253 110-660): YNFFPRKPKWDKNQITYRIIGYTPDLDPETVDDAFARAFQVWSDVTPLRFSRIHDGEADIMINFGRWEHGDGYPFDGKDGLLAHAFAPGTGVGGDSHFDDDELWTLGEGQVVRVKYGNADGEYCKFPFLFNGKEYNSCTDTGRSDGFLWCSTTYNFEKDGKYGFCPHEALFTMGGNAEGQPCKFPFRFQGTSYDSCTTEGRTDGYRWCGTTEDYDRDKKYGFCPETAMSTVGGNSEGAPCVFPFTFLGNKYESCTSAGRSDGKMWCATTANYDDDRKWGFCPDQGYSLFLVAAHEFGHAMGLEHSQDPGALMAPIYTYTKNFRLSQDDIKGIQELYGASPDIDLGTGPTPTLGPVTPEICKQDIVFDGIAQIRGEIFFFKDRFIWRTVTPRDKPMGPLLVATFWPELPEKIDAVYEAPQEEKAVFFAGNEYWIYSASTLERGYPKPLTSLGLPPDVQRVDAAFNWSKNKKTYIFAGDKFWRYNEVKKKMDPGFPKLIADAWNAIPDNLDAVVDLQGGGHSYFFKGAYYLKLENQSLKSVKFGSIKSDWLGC
Source text: (§1) As mentioned above, although low molecular weight MMP inhibitors, including hydroxamates of general formula (A), are already known, there is a strong need for better and diversified molecules for their use in medicine, that is in particular in the control or prevention of degenerative joint diseases such as rheumatoid arthritis and osteoarthritis, or in the management of multiple sclerosis, or in the treatment of invasive tumors. […] For example, the following protocol was used to assess the biochemical activity of compounds of formula (I) against MMP-1, MMP-2, and MMP-3 (respectively, human interstitial collagenase, gelatinase A, and stromelysin-1).
(§2) Human gelatinase-A (MMP-2) was obtained as pro-enzyme (72 kDa) and was activated with 1 mM 4-aminophenylmercuric acetate for 30 min at 37° C. immediately prior to use. Human stromelysin-1 (MMP-3) was obtained as a recombinant pro-enzyme isolated either from E. coli or from baculovirus infected Sf9 insect cells and activated either by heat (1 h, 55° C.) or by 5 mg/l trypsin (30 min, 37° C.) before addition of soybean trypsin inhibitor, finally removed by centrifugation.
(§3) All enzyme assays to determine values of the enzyme-inhibitor dissociation constants were performed using the peptide substrate (7-methoxycoumarin-4-yl)Acetyl-Pro-Leu-Gly-Leu-(3-[2,4-dinitrophenyl]-L-2,3-diaminopropionyl)-Ala-Arg-NH2 (Mca-Pro-Leu-Gly-Leu-Dpa-Ala-Arg--NH2) (C. G. Knight et al., FEBS Lett. 296:263-266, 1992). The enzymes cleave at the Gly-Leu bond removing the internally quenching Dpa group. The release of the highly fluorescent peptide Mca-Pro-Leu was followed fluorimetrically setting the excitation wavelength at 326 nm (bandwidth 5 nm) and the emission at 392 nm (bandwidth 20 nm).
(§4) Continuous fluorescence assay was carried out using a Perkin Elmer LS-50 Fluorescence Spectrophotometer fitted with a thermostatted four position stirring cell changer. Inhibitors were dissolved in the assay buffer ([…] Tris/HCl pH 7.4 containing 0.15 M NaCl, 10 mM CaCl2, 0.01 mM ZnCl2 and 0.05% Brij 35) thermostatted at 37° C. The reaction was started by the addition of substrate ([…]), followed by the addition of the enzyme (e.g. 1.0 nM collagenase, 0.04 nM gelatinase, or 3.0 nM stromelysin) and the increase in fluorescence was monitored over 30 min. The run was repeated at different concentrations of inhibitors in the range 0.1-10000 nM and data at inhibitor concentration in the region if their enzyme-inhibitor dissociation constants were used for calculation.
(§5) Substrate consumption was within 5% of the initial concentration and data outside this range were discarded. The Michaelis constants (Km) for the enzyme-substrate complexes is […] or greater (C. G. Knight et al., reference above), so that the factor (1+S/Km) can be approximated to unity without appreciable error.

[3] = molecular target: T2, MMP-3 (human stromelysin-1) (Homo sapiens, UniProt P08254); assay: Biochemical Assay (Protocol A): inhibition of human stromelysin-1, fluorimetric peptide substrate; conditions: MMP-3, pH 7.4, 37° C.
T2 construct: host or cells: E. coli or baculovirus-infected Sf9 insect cells
T2 sequence (P08254 100-477): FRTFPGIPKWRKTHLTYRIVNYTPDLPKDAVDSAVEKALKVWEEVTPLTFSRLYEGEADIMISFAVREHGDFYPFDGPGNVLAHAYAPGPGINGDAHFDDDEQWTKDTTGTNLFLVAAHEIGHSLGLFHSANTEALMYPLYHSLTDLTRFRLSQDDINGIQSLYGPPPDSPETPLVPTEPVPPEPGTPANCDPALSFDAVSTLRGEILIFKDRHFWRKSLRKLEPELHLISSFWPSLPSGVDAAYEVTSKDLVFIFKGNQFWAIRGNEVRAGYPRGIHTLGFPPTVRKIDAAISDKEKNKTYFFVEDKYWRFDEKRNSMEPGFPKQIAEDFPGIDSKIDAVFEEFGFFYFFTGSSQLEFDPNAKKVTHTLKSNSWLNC
Source text: as §1, §2, §3, §4, §5

IC50 [1]: 8100 nM
Ki [2]: 9.2 nM
Ki [3]: 150 nM
Compound: CNC(=O)[C@@H](NC(=O)[C@H](CC(C)C)[C@](O)(CO)C(=O)NO)C(C)(C)C [Example 3]
